Assay results from BindingDB's records for patent US9145380 (Astrazeneca, 2015).

Target: T1, Prostaglandin E synthase (Homo sapiens, UniProt O14684)
T1 sequence (O14684 whole entry): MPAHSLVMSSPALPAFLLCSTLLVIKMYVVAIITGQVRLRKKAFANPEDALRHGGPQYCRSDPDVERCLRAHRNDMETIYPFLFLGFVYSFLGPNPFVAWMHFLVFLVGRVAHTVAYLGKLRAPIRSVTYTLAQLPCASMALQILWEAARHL
Assay: Biochemical Assay
Settings: pH 6.8
Method: A solution of test compound was added to a diluted microsome preparation containing human mPGES-1 and pre-incubated for 15 minutes in potassium phosphate buffer pH 6.8 with cofactor glutathione (GSH). Corresponding solutions without test compound were used as positive controls, and corresponding solutions without test compound and without microsomes were used as negative controls. The enzymatic reaction was then started by addition of the substrate PGH2 in an organic solution (dry acetonitrile).The typical reaction conditions of the enzymatic reaction were thus: Test compound: ranging from 60 uM to 0.002 uM, or zero in positive and negative controls; potassium phosphate buffer pH 6.8: 50 mM; GSH: 2.5 mM; mPGES-1-containing microsomes: 2 ug/mL (sample and positive controls) or 0 ug/mL (negative control); PGH2: 10.8 uM; Acetonitrile: 7.7% (v/v); DMSO: 0.6% (v/v). The reaction was stopped after one minute by adding an acidic solution (pH 1.9) of ferric chloride.

IC50: 6.2 µM
Compound: COc1ccc(Br)cc1/C=C/S(=O)(=O)Nc1ccc(C#CC(C)(C)O)cc1S(N)(=O)=O [US9145380, 179]
